Converted amounts (≈) assume the structure as drawn.
How the values were obtained:
[1] = tested on: E. coli (ATCC 25922, SA/2, AG100, AG100A); assay: MIC determination, broth microdilution; type: cell-based; conditions: Escherichia coli, ATCC25922
From the text: (§1) Both reference and resistant strains used in this work were employed by our group for the screening of different families of compounds, such as xanthones and thioxanthones.

E. faecalis ATCC 29212 = assay: MIC determination, broth microdilution; type: cell-based; conditions: Enterococcus faecalis, ATCC29212
From the text: as §1

E. faecalis B3/101 (VRE) = assay: MIC determination, broth microdilution; type: cell-based; conditions: Enterococcus faecalis
From the text: as §1

P. aeruginosa ATCC 27853 = assay: MIC determination, broth microdilution; type: cell-based; conditions: Pseudomonas aeruginosa, ATCC27853
From the text: as §1

S. aureus 66/1 (MRSA) = assay: MIC determination, broth microdilution; type: cell-based; conditions: Staphylococcus aureus
From the text: as §1

S. aureus ATCC 29213 = assay: MIC determination, broth microdilution; type: cell-based; conditions: Staphylococcus aureus, ATCC29213
From the text: as §1

S. aureus MRSA 272123 = assay: MIC determination, broth microdilution; type: cell-based; conditions: Staphylococcus aureus
From the text: as §1

[2] = tested on: NIH/3T3 mouse fibroblast cell line; assay: Cytotoxicity assay (MTT); type: cell-based; conditions: NIH3T3, 24 h
Protocol: The effects of increasing concentrations of compounds on cell growth were tested in 96-well flat-bottomed microtiter plates. The compounds were diluted in a volume of 100 μL of medium. Afterwards, 1 × 10^4 cells in 100 μL of medium were added to each well, with the exception of the medium control. In the case of NIH/3T3 cells, the compounds were added after seeding the cells at 37 °C overnight. The plates were incubated at 37 °C for 24 h; after the incubation period, 20 μL of MTT solution (from a 5 mg/mL stock) was added to each well. After 4 h of incubation at 37 °C, 100 μL of SDS solution (10% in 0.01 M HCl) was added to each well and the plates were incubated at 37 °C overnight. Cell growth was determined by measuring the optical density (OD) at 540 nm (ref. 630 nm) with a Multiscan EX ELISA reader. Inhibition of cell growth was determined as IC50 values, defined as the inhibitory dose that reduced the growth of the cells exposed to the tested compounds by 50%. IC50 values and the SD of triplicate experiments were calculated by using GraphPad Prism software version 5.00 for Windows with a nonlinear regression curve fit (GraphPad Software, San Diego, CA, USA; www.graphpad.com, accessed on 14 July 2022). Doxorubicin (from a 2 mg/mL stock solution, Teva Pharmaceuticals) was used as the positive control.

H1N1 = tested on: H1N1; design: method as in PMID 23758051; conditions: anti-viral; cited from earlier work
Vibrio harveyi = conditions: aqua-pathogenic Vibrio harveyi; literature, reference not given; cited from earlier work
E. coli AG100 [3] = assay: Real-time ethidium bromide accumulation assay (efflux pump inhibition); conditions: minute 60
E. coli AG100A [4] = assay: as above; conditions: compound at 100 μM, minute 60
S. aureus 272123 = assay: as above; conditions: minute 60
Staphylococcus aureus = conditions: sensitive and methicillin-resistant strains of S. aureus; cited from earlier work
Enterococcus faecalis = conditions: sensitive and vancomycin-resistant strains of E. faecalis; cited from earlier work
[5] = tested on: human brain endothelial cell line (hCMEC/D3); design: method as in PMID 27268269; conditions: cited from earlier work
E. coli AG100A [6] = assay: Biofilm formation, crystal violet method; type: cell-based, Escherichia coli
Protocol: (§2) The antibiofilm effect of the tested compounds was evaluated using the crystal violet method on E. coli AG100, E. coli AG100A, and MRSA 272123. […] CCCP was used as a positive control.
(§3) The biofilm-forming ability of the S. aureus strains was studied in 96-well microtiter plates using TSB broth in the presence of compounds. The biofilm-forming ability of the E. coli strains was studied in 96-well microtiter plates using LB broth in the presence of the compounds. […] The final volume was 200 μL in each well. The positive control was CCCP at 50 µM. Plates were incubated for 48 h at 30 °C with gentle shaking at 100 rpm. After the incubation period, the medium was removed and the plate was washed with water to remove unattached cells. A total of 200 μL CV (0.1% [v/v]) was added to each wells and incubated for 15 min at room temperature. CV was discarded from the wells and the plate was washed with water again. Then, 200 μL of 70% ethanol was added to each well and the biofilm formation was determined by measuring the OD at 600 nm using a Multiscan EX ELISA plate reader (Thermo Labsystems, Cheshire, WA, USA). The antibiofilm effect of the compounds was expressed as the percentage (%) decrease in biofilm formation.

E. coli AG100 [7] = assay: Biofilm formation, crystal violet method; type: cell-based, Escherichia coli; conditions: 50 μM
Protocol: as §2, §3

phytopathogenic fungi = tested on: phytopathogenic fungi; design: method as in PMID 22409377; conditions: several phytopathogenic fungi; cited from earlier work

Structure (SMILES)	MIC [1] [µM]	MIC (E. faecalis ATCC 29212) [µM]	MIC (E. faecalis B3/101 (VRE)) [µM]	MIC (P. aeruginosa ATCC 27853) [µM]	MIC (S. aureus 66/1 (MRSA)) [µM]	MIC (S. aureus ATCC 29213) [µM]	MIC (S. aureus MRSA 272123) [µM]	IC50 [2] [µM]	RFI ± SD (E. coli AG100 [3]; compound at 50 μM)	RFI ± SD (E. coli AG100 [3]; compound at 100 μM)	RFI ± SD (E. coli AG100A [4])	RFI ± SD (S. aureus 272123; compound at 50 μM)	RFI ± SD (S. aureus 272123; compound at 100 μM)	further results
O=C1NCc2nc3ccccc3c(=O)n2[C@@H]1Cc1c[nH]c2ccccc12 [Compound 1, (R)-4-((1H-indol-3-yl)methyl)-1,2-dihydro-6H-pyrazino[2,1-b]quinazoline-3,6(4H)-dione]	> 100	> 100	> 100	> 100	> 100	> 100	> 100	> 100	−0.24 ± 0.05	−0.04 ± 0.10	0.12 ± 0.01	0.23 ± 0.02	−0.01 ± 0.04	IC50 (H1N1): 100 to 150 µM; MIC (Vibrio harveyi): 32 µg/mL (≈ 92.9 µM)
CC(C)[C@@H]1NC(=O)[C@@H](C[C@]2(O)c3ccccc3N3C(=O)[C@@H](C)N[C@H]32)n2c1nc1ccccc1c2=O [Compound 3, Neofiscalin A]	–	–	–	–	–	–	–	–	–	–	–	–	–	MIC (Staphylococcus aureus): 8 µg/mL (≈ 16.9 µM); MIC (Enterococcus faecalis): 8 µg/mL (≈ 16.9 µM); cytotoxicity (in words) [5]: no cytotoxicity
C[C@@H]1NC(=O)[C@@H](Cc2c[nH]c3ccccc23)n2c1nc1ccccc1c2=O [Compound 2, (1S,4R)-4-((1H-indol-3-yl)methyl)-1-methyl-1,2-dihydro-6H-pyrazino[2,1-b]quinazoline-3,6(4H)-dione]	> 100	> 100	> 100	> 100	> 100	> 100	> 100	> 100	−0.31 ± 0.02	0.17 ± 0.10	0.26 ± 0.10	−0.01 ± 0.02	0.05 ±0.02	decrease in biofilm formation (E. coli AG100A [6]): 65%; antibiofilm effect (in words) (E. coli AG100 [7]): reduced the amount of biofilm; MIC (phytopathogenic fungi): 12.5 to 25 µg/mL
